Experimental findings from patent publication US7399869B2, “Fibroblast activation protein inhibitor compounds and methods” (Genentech, Inc., priority 2005, dated 2008) are described below.

Non-standard residues stand in square brackets, D forms with d. Residues, ends and D or L forms follow the SMILES beside them. ξ: configuration not given here. *: point of attachment. AFC = O=c1cc(C(F)(F)F)c2ccc(N*)cc2o1; AMC = Cc1cc(=O)oc2cc(N*)ccc12; Cbz = O=C(OCc1ccccc1)*; ξP = O=C(O)C1CCCN1

By Ki is commonly meant the equilibrium dissociation constant of an inhibitor or competing ligand from its target. Low readings indicate tighter binding, high ones weaker binding. What is called Km is the concentration of substrate that gives half-maximal velocity.

Holding throughout (type): biochemical
The target of assay [1] is T1, FAP (Homo sapiens, UniProt Q12884).
T1 sequence (Q12884 38-760): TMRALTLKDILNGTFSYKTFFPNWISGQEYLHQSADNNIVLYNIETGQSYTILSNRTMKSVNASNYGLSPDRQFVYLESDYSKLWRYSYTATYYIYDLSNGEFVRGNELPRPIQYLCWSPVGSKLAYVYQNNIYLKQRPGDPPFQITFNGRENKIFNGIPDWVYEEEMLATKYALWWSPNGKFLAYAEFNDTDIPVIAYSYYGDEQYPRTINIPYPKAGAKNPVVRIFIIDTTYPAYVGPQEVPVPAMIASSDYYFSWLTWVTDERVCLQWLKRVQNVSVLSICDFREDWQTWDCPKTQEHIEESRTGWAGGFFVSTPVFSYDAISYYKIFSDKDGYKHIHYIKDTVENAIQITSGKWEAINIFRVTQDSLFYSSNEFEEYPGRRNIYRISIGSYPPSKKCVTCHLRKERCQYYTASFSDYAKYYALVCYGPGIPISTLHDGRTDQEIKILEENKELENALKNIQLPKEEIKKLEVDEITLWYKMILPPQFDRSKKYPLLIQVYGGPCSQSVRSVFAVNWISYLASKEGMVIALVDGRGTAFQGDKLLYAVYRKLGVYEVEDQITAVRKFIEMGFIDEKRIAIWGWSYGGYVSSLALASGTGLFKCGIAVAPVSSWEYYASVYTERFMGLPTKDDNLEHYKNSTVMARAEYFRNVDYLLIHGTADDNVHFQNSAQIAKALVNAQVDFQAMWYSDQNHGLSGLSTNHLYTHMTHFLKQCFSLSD
The assay is described as follows: Relative cleavage rates of coumarin (AMCC) dipeptide substrates by FAP. The settings on record: for relative cleavage rate by FAP: N-blocked Gly-Pro-AMCC substrates 6, normalized to N-unblocked Gly-Pro-AMCC, FAP 37 nM. Also noted: FAP (amino acids 38-760); FLAG (N); made in house; host or cells: 293 cells (secreted, purified from serum-free conditioned media). The protocol:
(§1) The relative cleavage rates of a variety of N-blocked, C-terminal coumarin (AMCC) Gly-Pro dipeptide substrates 6 were measured. The rates were normalized to N-unblocked Gly-Pro-AMCC for FAP and DPP-4.
(§2) To examine whether FAP could cleave other N-substituted-Gly-Pro-based substrates, N-methyl-, formyl-, succinyl-, benzyloxycarbonyl-(Z-) and biotinyl-Gly-Pro-AMCC substrates 6 were synthesized and reacted with FAP (37 nM) and DPP-4 (6.8 nM).
(§3) Amino-terminus P2 was varied with the L-amino acids: alanine, aspartic acid, glutamic acid, phenylalanine, glycine, histidine, isoleucine, lysine, leucine, methionine, asparagine, proline, glutamine, arginine, serine, threonine, valine, tryptophan, and tyrosine (from left). AMCC=2-(7-amino-4-methyl-2-oxo-2H-chromen-3-yl)acetamide. For both enzymes, the amino acid adjacent in the model dipeptide substrate had little effect where the amino-terminus was unblocked. Hydrolysis rates of other P2-Pro-AMCC substrates by FAP and DPP-4 relative to Gly-Pro-AMCC include the following in Table 6:
(§4) Protease Assays—Protease activity was monitored continuously using a SpectraMax M2 microplate reader (Molecular Devices Corp., Sunnyvale Calif.) in the kinetic mode. Assays were conducted at 23° C. in 50 mM Tris (pH 7.4), 100 mM NaCl, 1 mM EDTA. The excitation/emission wavelengths for the different fluorogenic substrates were 360/460 nm (AMC), 400/505 nm (AFC), 340/425 nm (MNA), 340/510 nm (EDANS), and 337/425 nm (Abs). Standard curves of the appropriate fluorescent product versus concentration were used to convert relative fluorescence units to nmol of product produced. Substrates in the X-Pro-AMC library were used in rate assays at 5 μM final concentration. […] The kinetic parameters were calculated from Michaelis-Menten plots (V0 versus [S]) with nonlinear regression analysis using GraphPad software. kcat values were calculated under the assumption that each protease was 100% active.

For assay [2], the target named is T2, DPP-4 (Homo sapiens, UniProt P27487). The assay is described as follows: Relative cleavage rates of coumarin (AMCC) dipeptide substrates by DPP-4. Also noted: DPP-4 (amino acids 39-766); FLAG (N); made in house; host or cells: 293 cells (secreted, purified from serum-free conditioned media). As to conditions: for cleavage of N-substituted-Gly-Pro-AMCC substrates by DPP-4 (in words) / relative cleavage rate by DPP-4: DPP-4 6.8 nM; for cleavage of N-substituted-Gly-Pro-AMCC substrates by DPP-4 (in words): substrate concentrations up to 1 mM; for relative cleavage rate by DPP-4: N-blocked Gly-Pro-AMCC substrates 6, normalized to N-unblocked Gly-Pro-AMCC. The protocol: as §1, §2, §3, §4
T2 sequence (P27487 39-766): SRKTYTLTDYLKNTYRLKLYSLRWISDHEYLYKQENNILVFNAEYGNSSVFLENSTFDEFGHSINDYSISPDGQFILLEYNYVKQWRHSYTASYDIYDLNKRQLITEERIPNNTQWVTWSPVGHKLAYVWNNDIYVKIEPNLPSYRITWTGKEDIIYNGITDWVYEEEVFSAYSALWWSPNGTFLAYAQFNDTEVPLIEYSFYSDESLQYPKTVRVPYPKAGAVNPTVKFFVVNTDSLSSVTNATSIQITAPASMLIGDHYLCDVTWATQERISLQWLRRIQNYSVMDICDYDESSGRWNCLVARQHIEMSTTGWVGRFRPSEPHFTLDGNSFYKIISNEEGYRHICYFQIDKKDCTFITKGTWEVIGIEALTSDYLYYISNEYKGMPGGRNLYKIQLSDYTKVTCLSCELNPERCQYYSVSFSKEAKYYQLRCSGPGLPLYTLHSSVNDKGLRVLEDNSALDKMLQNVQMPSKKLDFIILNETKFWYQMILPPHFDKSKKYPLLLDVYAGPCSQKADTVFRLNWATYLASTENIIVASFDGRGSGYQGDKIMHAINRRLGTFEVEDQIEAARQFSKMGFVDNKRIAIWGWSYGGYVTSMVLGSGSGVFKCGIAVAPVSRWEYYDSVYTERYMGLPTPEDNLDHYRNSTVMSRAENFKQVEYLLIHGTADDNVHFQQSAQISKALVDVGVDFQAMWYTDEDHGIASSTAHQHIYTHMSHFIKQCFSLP

Assay [3] addresses T2, DPP-4. The assay is described as follows: Inhibition of DPP-4 by N-blocked boroPro compounds (progress curves). Also noted: DPP-4 (amino acids 39-766); FLAG (N); made in house; host or cells: 293 cells (secreted, purified from serum-free conditioned media). The settings on record: cleavage of substrate L-Ala-Pro-AFC. The protocol:
The steady states of product formation in the absence (V0) and presence of inhibitor (Vi) were used to calculate apparent inhibition constants (Kiapp) by plotting V0/Vi−1 against inhibitor concentration.
Briefly, proteases were added to a reaction mixture containing inhibitor and substrate (Ac-Ala-AMC for APH, Z-Gly-Pro-AMC for POP, and Ala-Pro-AFC for all others) in assay buffer at 23° C. Protease activity was followed continuously as described above to monitor time-dependent inhibition. Data were plotted as V0/Vi−1 versus [I], where V0 is the rate if substrate hydrolysis in the absence of inhibitor, Vi is the steady state rate of substrate hydrolysis in the presence of inhibitor and [I] is the concentration of Ac-Gly-BoroPro.
KI values for inhibition of proteases by 5 were determined using the method of progress curves. Briefly, proteases (10-100 nM) were added to a reaction mixture containing inhibitor 5 (0-10 μM) and substrate AP-AFC in assay buffer at 23° C. […] Data were plotted as V0/Vi−1 versus [I], where V0 is the rate if substrate hydrolysis in the absence of inhibitor, Vi is the steady state rate of substrate hydrolysis in the presence of inhibitor and [I] is the concentration of 5. […] Ki, the true equilibrium inhibition constant was determined according to the following relationship: Ki=Kobs/(1+[S]/Km), where [S] is the concentration of substrate used in the assay and Km is the Michaelis constant for substrate cleavage.

Assay [4] deals with T1, FAP. The assay is described as follows: Hydrolysis of C-terminal coumarin dipeptide substrates by FAP (kinetic constants). Set-up: FAP (amino acids 38-760); FLAG (N); made in house; host or cells: 293 cells (secreted, purified from serum-free conditioned media). The settings on record: for Km / Kcat: pH 7.4, NC = no cleavage up to 1 mM substrate. The protocol:
(§5) The relative cleavage rates by FAP and several dipeptidases of N-blocked (8) and unblocked (7) Gly-Pro dipeptide substrates were measured.
(§6) The cleavage (hydrolysis) rates of various C-terminal coumarin dipeptide substrates 7-16 by FAP and DPP-4 were measured (Tables 4 and 5). The amino-terminus of the substrates was unblocked and the amino acids were varied in Table 4. The amino-terminus of the substrates was blocked and the amino acids were varied in Table 5. To extend the results obtained with the dipeptide substrate library, kinetic parameters were determined for cleavage of the unblocked dipeptide substrates by FAP (Table 4). The catalytic efficiency (kcat/Km) for substrate cleavage was greatest with Ile-Pro-AFC, followed by Ala-Pro-, Gly-Pro- and Phe-Pro-AFC, consistent with the dipeptide substrate library results (FIG. 5). […] Kinetic constants for cleavage of Ala-Pro-AFC and Gly-Pro-AFC by DPP-4 were determined (Table 4). The catalytic efficiency for Ala-Pro-AFC hydrolysis was greater than that for Gly-Pro-AFC, and consistent with the dipeptide library.
as §4
(§7) When saturating amounts of substrate could not be achieved, catalytic efficiencies (kcat/Km) were determined under pseudo-first order conditions ([S]<<the estimated Km) and fit to the following equation: Ln[St/S0]=−kobst, where St is the concentration of substrate remaining at time t, S0 is the initial substrate concentration and kobs is the apparent first order substrate cleavage constant equal to (kcat/Km) times ET, the total enzyme concentration (Copeland, R. (2000) Enzymes, A Practical Introduction to Structure, Mechanism, and Data Analysis, 2nd Ed., John Wiley and Sons, Inc, New York). The linear relationship of Ln[St/S0] versus time allows calculation of kcat/Km by dividing the slope of the plot by ET.

For assay [5], the target named is T2, DPP-4. The assay is described as follows: Hydrolysis of C-terminal coumarin dipeptide substrates by DPP-4 (kinetic constants). Also noted: DPP-4 (amino acids 39-766); FLAG (N); made in house; host or cells: 293 cells (secreted, purified from serum-free conditioned media). As to the method:
as §5, §6, §4, §7

Where [6] appears, read: P2-Pro-AMCC substrates, hydrolysis rates normalized to Gly-Pro-AMCC.
Setting [7] is: FAP, substrates with unblocked N-termini, 23° C. in 50 mM Tris-HCl, 100 mM NaCl, 1 mM EDTA.
Setting [8] is: FAP, substrates with unblocked N-termini, 23° C.
[9] abbreviates: FAP, substrates with blocked N-termini, 23° C.
Setting [10] is: DPP-4, substrates with unblocked N-termini, 23° C., pH 7.4.

Regarding formyl-Gly-Pro-AMCC [HC(═O)], the “relative cleavage rate by FAP” value in assay [1] was 130%. In assay [2], the “cleavage of N-substituted-Gly-Pro-AMCC substrates by DPP-4 (in words)” value (“cleavage … by DPP-4 (in words)” below) is “low rate of hydrolysis” and the “relative cleavage rate by DPP-4” value is 7%.

`Cc1c(CC(N)=O)c(=O)oc2cc(NC(=O)[C@@H]3CCCN3C(=O)[C@@H](C)N)ccc12` [D-Ala]: the “Relative Hydrolysis rate by FAP” value in assay [1] (setting [6]) is recorded as 0. Moreover, the “Relative Hydrolysis rate by DPP-4” value in assay [2] (setting [6]) was found to be 2.

In the case of N-methyl-Gly-Pro-AMCC, in assay [2], the “cleavage … by DPP-4 (in words)” value was “comparable to Gly-Pro-AMCC”.

Turning to `CC(=O)N[C@H](C)C(=O)N1CCCC1B(O)O` (some centres unmarked) [N-Ac-(D)Ala-boroPro], in assay [3], the Ki is > 40 µM.

Turning to `NC(Cc1ccccc1)C(=O)N1CCCC1C(=O)Nc1ccc2c(C(F)(F)F)cc(=O)oc2c1` (stereo not drawn) [Phe-Pro-AFC 10, Phe-Pro-AFC] (H-Phe-Pro-{AFC}; configuration not given here), the Km in assay [4] (setting [7]) is 245 ± 22 µM. In assay [4] (setting [8]), this molecule had a Kcat of 1.1 ± 0.1 s⁻¹.

Turning to succinyl-Gly-Pro-AMCC [HO2CCH2CH2C(═O)], the “relative cleavage rate by FAP” value in assay [1] is 0%. Also, in assay [2], the “cleavage … by DPP-4 (in words)” value is reported as “no cleavage” and the “relative cleavage rate by DPP-4” value is recorded as 0%.

Take `CC[C@H](C)[C@H](N)C(=O)N1CCC[C@H]1C(=O)Nc1ccc2c(C(F)(F)F)cc(=O)oc2c1` [Ile-Pro-AFC 13, Ile-Pro-AFC] (H-Ile-Pro-{AFC}): the “Km, fold lower than the other P2-Pro-AFC substrates” value in assay [4] (FAP) is given as ~2.5 fold. The Km in assay [4] (setting [7]) is 106 ± 6 µM. In assay [4] (setting [8]), the Kcat turned out to be 6.9 ± 0.3 s⁻¹.

As for `Cc1cc(=O)oc2cc(NC(=O)[C@H](C)NC(=O)CN)ccc12` [Gly-Ala-AMC 11, Gly-Ala-AMC] (H-Gly-Ala-{AMC}), the “cleavage by FAP (in words)” value in assay [4] is recorded as “not cleaved”.

Take biotinyl-Gly-Pro-AMCC: the “relative cleavage rate by FAP” value in assay [1] is 40%. Further, in assay [2], the “cleavage … by DPP-4 (in words)” value is recorded as “no cleavage” and the “relative cleavage rate by DPP-4” value is given as 0%.

In the case of `Cc1cc(=O)oc2cc(NC(=O)C3CCCN3C(=O)CNC(=O)OCc3ccccc3)ccc12` (stereo not drawn) [Z-Gly-Pro-AMC 14, Benzyloxycarbonyl (Z)-Gly-Pro-7-amino-4-methylcoumarin] (Cbz-Gly-[ξP]-{AMC}), the “catalytic efficiency, fold lower than that for Gly-Pro-AFC” value in assay [4] (FAP) is on record as “about 3 fold”. Besides, in assay [4] (setting [9]), the Kcat is <30 s⁻¹ and the Km is > 4 µM. For the same molecule, the “DPP-4 activity against substrate (in words)” value in assay [5] is “little activity”.

Consider `C[C@H](N)C(=O)N1CCC[C@H]1C(=O)Nc1ccc2c(C(F)(F)F)cc(=O)oc2c1` [Ala-Pro-AFC 9, Ala-Pro-7-amino-4-trifluoromethylcoumarin] (H-Ala-Pro-{AFC}), for which the Km is 244 ± 28 µM in assay [4] (setting [7]) and 16 ± 3 µM in assay [5] (setting [10]). For the same molecule, the Kcat in assay [4] (setting [8]) worked out at 14.2 ± 0.9 s⁻¹; in assay [5] (setting [10]) it was 45.6 ± 1.7 s⁻¹.

Take `O=C(O)c1ccc2c(c1)C(=O)OC21c2ccc(O)cc2Oc2cc(O)ccc21` [5-carboxyfluorescein]: the “relative cleavage rate by FAP” value in assay [1] came out at 36%. Further, the “relative cleavage rate by DPP-4” value in assay [2] is listed as 0%.

Regarding `Cc1cc(=O)oc2cc(NC(=O)C(C)NC(=O)C(N)CCCCN)ccc12` (stereo not drawn) [Lys-Ala-AMC 12, Lys-Ala-AMC] (H-Lys-Ala-{AMC}; configuration not given here), the “catalytic efficiency, fold less than for cleavage of P2-Pro-based peptides” value in assay [4] (FAP) was 400-1000 fold. Besides, the Km in assay [4] (setting [7]) stood at 189 ± 20 µM. In assay [4] (setting [8]), the Kcat amounted to 0.01 ± 0.001 s⁻¹.
